The values that follow come from US20090042983A1, “Use of L-carnitine for the treatment of cardiovascular diseases” (Sigma-Tau Industrie Farmaceutiche Riunite S.p.A., priority 2003, published 2009).

In one test the test system is perfused heart. As to conditions: cited from earlier work.
Test [1] concerns patients with acute myocardial infarction. The settings on record: 3 grams every 8 hours (9 grams a day) intravenous for 48 hours; symptoms within 8 hours; 351 patients; cited from earlier work.
Test [2] shares this test system. Description: Multicentre double-blind placebo-controlled randomised clinical trial of L-carnitine on mortality (Example 1). The class given is in vivo, human. As to the method:
A clinical trial was conducted in order to evaluate the effect of the administration of L-carnitine on the incidence of mortality and heart failure in the short and long term in patients with acute myocardial infarction. The acute myocardial infarction has not localized within a specific region of the organ but it could be located anywhere in the heart. The trial design was that of a multicentre, parallel-group, double-blind, placebo-controlled, randomised trial.
A total of 2,296 male and female patients aged below 80 years were recruited. The study compound, L-carnitine, was administered at a dose of 9 g/day i.v. for the first 5 days and 4 g/day by mouth from day 6 to day 180.
Concomitant therapies were given according to the procedures adopted in local clinical practice.
The efficacy endpoints of the trial consisted in the reduction of mortality and heart failure.
• Typical chest pain lasting>30 minutes, not resolved by the oral or intravenous administration of nitrates; • ECG with ST segment deviation≧0.2 mV in D, and aVL and/or in two or more contiguous precordial leads; • Time interval elapsing from onset of symptoms to trial randomisation<12 hours; • Age<80 years; • Written informed consent.
• Pregnancy or breast-feeding; • Haemodynamically significant valvulopathy; • Hypertrophic or dilated cardiomyopathy; • Congenital heart disease; • Clinically severe liver or kidney disease; • Alcohol abuse; • Other diseases associated with a poor life expectancy; • Conditions making poor compliance with treatment and/or periodic visits likely; • Inclusion in another trial.

For test [3], the system named is patients affected by anterior acute myocardial infarction. As to conditions: cited from earlier work.
Another test deals with cardiac ischaemia. The settings on record: dogs, cardiac ischaemia model; cited from earlier work.
For test [4], the system named is acute myocardial infarction. The settings on record: 40 mg/kg/day (2.8 g/day); cited from earlier work.

As for `C[N+](C)(C)C[C@H](O)CC(=O)[O-].O=C(O)/C=C/C(=O)O` [L-carnitine fumarate], in the test with perfused heart, the lactate levels entry is listed as “lower lactate levels”, the “postischemic cardiac contraction amplitude” value is “greater”, the “release of LDH” value is “reduced release of LDH” and the “reserve of high-energy phosphate” value was “higher reserve of high-energy phosphate”. The coronary flow result in the test with perfused heart (postischemic) is “greater”.
For the compound `C[N+](C)(C)C[C@H](O)CC(=O)[O-]` [L-carnitine], in test [1], the “mortality vs control group at 7 days after the start of treatment” value was “no significant difference”. The “NUMBER OF DEATHS AT: 1 mos” value in test [2] (9 g/day i.v. first 5 days, 4 g/day by mouth day 6 to 180, at 1 mos) is 45. In addition, in test [2] (9 g/day i.v. first 5 days, 4 g/day by mouth day 6 to 180, at 2 mos), the “NUMBER OF DEATHS AT: 2 mos” value is 53. Moreover, the “NUMBER OF DEATHS AT: 6 mos” value in test [2] (9 g/day i.v. first 5 days, 4 g/day by mouth day 6 to 180, at 6 mos) was 64. For the same compound, in test [2] (9 g/day i.v. first 5 days, 4 g/day by mouth day 6 to 180, at 12 mos), the “NUMBER OF DEATHS AT: 12 mos” value was found to be 67. Moreover, in test [2] (L-carnitine vs placebo, at 1 mos), the “RR (Relative Risk) of death at 1 mos” value worked out at 0.78. Moreover, the “RR (Relative Risk) of death at 2 mos” value in test [2] (L-carnitine vs placebo, at 2 mos) is recorded as 0.81. In addition, in test [2] (L-carnitine vs placebo, at 6 mos), the “RR (Relative Risk) of death at 6 mos” value amounted to 0.86. In addition, the “RR (Relative Risk) of death at 12 mos” value in test [2] (L-carnitine vs placebo, at 12 mos) is 0.89. Also, the “reduction in deaths at the other observation times” value in test [2] (vs placebo, 3 and 7 days, 1, 2, 6, 12 mos) is “significant reductions”. Besides, the “reduction in deaths after 5 days' treatment” value in test [2] (vs placebo, after 5 days' treatment (P<0.05)) is recorded as “statistically significant reduction in deaths”. The “left ventricular dilation in the first year after infarction” value in test [3] (anterior acute myocardial infarction) was “significant attenuation of left ventricular dilation”. In addition, in test [3] (treated group, L-carnitine within 24 hours from onset of chest pain, 14 in control group, 472 patients in total), the “deaths during the hospitalisation period” value was 11. In addition, the cardiac lipid metabolism entry with cardiac ischaemia is “active in improving cardiac lipid metabolism”. Further, the “difference between patients treated within 4 hours and more than 4 hours after onset of infarct symptoms” value in test [4] is listed as “no significant difference”.
